As usually defined, the IC50 is the concentration needed to halve the response being measured. As a reminder, the Ki is the dissociation constant of the complex between target and ligand, obtained from inhibition or displacement.

From US20080076751A1, “Azetidinone Derivatives and Methods of Use Thereof” (priority 2006, published 2008) come the findings set out here.

Assay [1] deals with T1, TRPV1 (VR1) (Rattus norvegicus, UniProt O35433).
T1 construct: expressed in transfected cells; host or cells: HEK293-TetOFF, expression induced by withdrawing doxycycline
T1 sequence (O35433 whole entry): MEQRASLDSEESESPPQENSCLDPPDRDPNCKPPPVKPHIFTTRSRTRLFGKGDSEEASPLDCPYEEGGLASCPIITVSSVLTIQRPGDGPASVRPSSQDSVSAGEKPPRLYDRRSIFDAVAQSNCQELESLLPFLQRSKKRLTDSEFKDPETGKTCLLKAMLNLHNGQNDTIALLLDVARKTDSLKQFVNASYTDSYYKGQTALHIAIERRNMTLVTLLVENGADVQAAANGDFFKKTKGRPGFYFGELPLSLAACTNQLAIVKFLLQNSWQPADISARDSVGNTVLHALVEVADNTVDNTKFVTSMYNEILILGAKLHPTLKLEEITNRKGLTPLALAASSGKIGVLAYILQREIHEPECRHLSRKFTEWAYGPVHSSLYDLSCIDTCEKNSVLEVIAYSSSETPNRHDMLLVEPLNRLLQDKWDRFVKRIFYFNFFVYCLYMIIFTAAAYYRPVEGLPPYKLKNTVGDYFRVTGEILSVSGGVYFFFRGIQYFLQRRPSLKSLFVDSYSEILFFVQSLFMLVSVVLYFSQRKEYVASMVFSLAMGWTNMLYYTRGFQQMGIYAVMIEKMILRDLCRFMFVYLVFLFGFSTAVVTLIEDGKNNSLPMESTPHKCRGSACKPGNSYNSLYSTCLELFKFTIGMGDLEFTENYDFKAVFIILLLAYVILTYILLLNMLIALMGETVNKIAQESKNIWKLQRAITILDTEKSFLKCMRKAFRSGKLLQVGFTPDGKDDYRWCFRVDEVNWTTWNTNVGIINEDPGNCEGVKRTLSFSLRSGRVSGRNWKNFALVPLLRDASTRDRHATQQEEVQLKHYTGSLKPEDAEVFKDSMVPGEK
Put plainly: TRPV1 screening assay (FLIPR, Fluo-4 calcium), capsaicin stimulation. In kind it is cell-based. The following applies: FLIPR, HEK293-TetOFF-TRPV1, capsaicin 50 nM final; read-out: VR1 flipr CAPSAICIN IC50. An excerpt:
(§1) • 1) Cell line: HEK293-Tet^OFF-TRPV1 • 2) Media: MEM (Invitrogen) • 3) 10% Tet-FBS (Clontech #8630-1) • 4) Fungizone (Gibe #15290-018 (100X)) • 5) Penn/Strep (Gibco #15140-122 (100X)) • 6) Geneticin (Gibco #10131-027 (100X)) • 7) Hygromycin (Clontech #8057-1) • 8) Doxycycline (Clontech #8634-1) • 9) Trypsin/EDTA (Gibco #25200-056) • 10) 100 mm cell culture plates (Falcon #3003) • 11) 96-well poly-D-lysine plates (Fisher #08-774-256) • 12) Hank's Balanced Salt Solution (HBSS) (GIBCO #14025-092) • 13) HEPES Buffer (GIBCO #15630-080) • 14) 30% BSA (Research Organics #1334A) • 15) Probenecid (Sigma P-8761) • 16) Fluo-4, AM (50 μg) (Molecular Probes F-23917) • 17) Pluronic F-127 20% (Molecular Probes P-3000). • 18) capsazepine (Sigma C-191) • 19) capsaicin (Sigma M-2028) • 20) compound plates (NUNC #442587) • 21) black pipet tips 96-well FLIPR (Robbins Scientific 1043-24-0) • 22) Additional reagents available from Fisher: methanol, DMSO, NaOH Reagent Preparation: 1) Cells: HEK293-Tet^OFF-TRPV11
(§2) • and Doxycycline 2.5 μg/mL final (from a 1000× stock in PBS) • Cells must be fed and/or split every 2-3 days (to maintain transcriptional repression with Doxycycline). • Must be split no more than 1:5 (50-75% confluency) to maintain growth and viability. • Grown on regular tissue culture plates (e.g Falcon 3003-100 mm) • Split cells via Trypsin/EDTA: incubate with trypsin at room temperature no longer than 5 minutes (HEK293 cells have a tendency to ball up if over trypsinized). • Two days prior to assay, the cells are split into 96-well plates in cell media in the absence of doxycycline at a concentration of 40,000 cells/well in a volume of 200 μL. 2) FLIPR buffer is prepared fresh:
Add 5 mL of Probenecid Solution, prepared as follows: 710 mg of probenecid (Sigma P-8761) is solubilized in 5 mL of 1N NaOH, 5 mL of above buffer is added for final volume of 10 mL. (of which 5 mL goes back into FLIPR buffer)
Combine 42 μL of dye mixture with 11 mL of FLIPR buffer/96-well plate.
Stock solution of 0.1 M capsaicin is prepared in MeOH (50 mg+1.6 mL MeOH). Store 50 μL aliquots at −80° C.
(§3) For assay: • a) Dilute stock by adding 0.8 μL into 1 mL of MeOH (final=80 uM). • b) Add 50 μL of diluted stock to 20 mL of FLIPR buffer (final=0.2 uM) • c) Agonist solution is added 150 μL/well to 96-well plate. • d) Final agonist concentration on cells will be 50 nM. […] Laser is adjusted upwards for an average signal≧10,000/well and less than 10% variability. 7) Compound addition conditions are as follows: • FLIPR setup (dual sequence parameters): • Sequence 1: • First interval 1 sec/60 counts • Second interval 6 sec/50 counts • Fluid addition=50 μL • Pipettor height 110 μL • Dispense Speed=30 μL/sec • Sequence 2: • Second interval 1 sec/60 counts • Second interval 6 sec/40 counts • Fluid addition=50 μL • Pipettor height=140 μL • Dispense Speed=50 μL/sec Data Analysis: • 1) Data from both additions is reported as Max-Min for each well

The target in assay [2] is T1, TRPV1 (VR1). Put plainly: TRPV1 screening assay (FLIPR, Fluo-4 calcium), PMA stimulation. In kind it is cell-based. The following applies: HEK293-TetOFF-TRPV1, PMA. How it is done:
2) FLIPR buffer is prepared fresh:
as §3

A further assay deals with NPC1L1 (Rattus norvegicus, UniProt Q6T3U3). As to the kind of experiment: NPC1L1 binding assay (BODIPY-labeled glucuronidated ezetimibe competition), rat.
A further assay has as its target T2, human NPC1L1 (Homo sapiens, UniProt Q9UHC9).
T2 construct: expressed in transfected cells; host or cells: HEK-293 (geneticin selection)
T2 sequence (Q9UHC9 22-1359): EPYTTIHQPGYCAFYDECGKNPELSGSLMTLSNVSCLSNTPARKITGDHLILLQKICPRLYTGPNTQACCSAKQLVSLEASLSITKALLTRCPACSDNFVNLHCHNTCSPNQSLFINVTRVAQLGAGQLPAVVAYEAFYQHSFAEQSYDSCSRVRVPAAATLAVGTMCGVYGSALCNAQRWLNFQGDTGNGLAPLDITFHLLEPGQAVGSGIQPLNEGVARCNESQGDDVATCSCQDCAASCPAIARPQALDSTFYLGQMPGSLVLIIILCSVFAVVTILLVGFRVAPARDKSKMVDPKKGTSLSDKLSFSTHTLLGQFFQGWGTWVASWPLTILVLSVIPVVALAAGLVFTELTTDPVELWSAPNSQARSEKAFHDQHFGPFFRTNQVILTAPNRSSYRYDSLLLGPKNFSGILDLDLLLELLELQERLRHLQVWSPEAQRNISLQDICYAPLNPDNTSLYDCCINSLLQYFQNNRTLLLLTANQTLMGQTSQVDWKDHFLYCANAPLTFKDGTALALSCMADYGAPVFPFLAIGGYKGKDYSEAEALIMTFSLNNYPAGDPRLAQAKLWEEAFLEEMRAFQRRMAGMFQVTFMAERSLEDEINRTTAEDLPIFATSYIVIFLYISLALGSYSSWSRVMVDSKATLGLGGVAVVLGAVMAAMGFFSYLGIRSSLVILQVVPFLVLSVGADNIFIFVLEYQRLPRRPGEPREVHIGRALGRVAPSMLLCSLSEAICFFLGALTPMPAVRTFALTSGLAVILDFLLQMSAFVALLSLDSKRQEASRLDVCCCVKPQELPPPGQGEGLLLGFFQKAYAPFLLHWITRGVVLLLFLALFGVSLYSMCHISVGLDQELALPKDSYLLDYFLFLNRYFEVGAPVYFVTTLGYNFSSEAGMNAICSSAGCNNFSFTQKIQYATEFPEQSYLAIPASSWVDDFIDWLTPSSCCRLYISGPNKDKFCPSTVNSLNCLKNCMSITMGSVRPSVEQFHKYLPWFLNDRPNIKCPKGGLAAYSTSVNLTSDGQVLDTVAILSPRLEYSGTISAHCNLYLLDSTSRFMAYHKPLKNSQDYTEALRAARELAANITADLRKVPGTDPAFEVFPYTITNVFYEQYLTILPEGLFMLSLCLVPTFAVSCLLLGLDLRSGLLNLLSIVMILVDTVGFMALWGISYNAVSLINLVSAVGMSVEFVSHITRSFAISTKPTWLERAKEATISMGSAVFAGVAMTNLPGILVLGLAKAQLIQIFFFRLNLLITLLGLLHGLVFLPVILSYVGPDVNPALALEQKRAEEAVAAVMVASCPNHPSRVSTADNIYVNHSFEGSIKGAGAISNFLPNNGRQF
Put plainly: NPC1L1 binding assay (BODIPY-labeled glucuronidated ezetimibe competition), human. The following applies: HEK-293 cells expressing human NPC1L1, 4 hours at 37° C. How it is done:
HEK-293 cells expressing human NPC1L1 were plated into 384-well black/clear plates (BD Biosciences, Bedford Mass.) for binding experiments the following day. Cell growth media (DMEM, 10% fetal calf serum, 1 mg/mL geneticin, 100 Units/mL penicillin) was aspirated. Cell growth media ([…]) containing 250 nM BODIPY-labeled glucuronidated ezetimibe was added to each well. Cell growth media ([…]) containing the indicated concentration of compound was then added to the wells. Unlabeled glucuronidated ezetimibe ([…]) was used to determine nonspecific binding. The binding reaction was allowed to proceed for 4 hours at 37° C. Subsequently the cell growth media was aspirated and the cells washed once with PBS. The remaining fluorescent labeled glucuronidated ezetimibe bound to the cells was quantified using a FlexStation plate reader (Molecular Devices, Sunnyvale Calif.) to measure fluorescence intensity. Ki values were determined from competition binding curves (n=4 for each point) using Prism and Activity Base software.

Another assay concerns the target T3, rat VR1 (Rattus norvegicus, UniProt O35433).
T3 construct: expressed in transfected cells; host or cells: HEK293-TetOFF
As to the kind of experiment: TRPV1 screening assay (FLIPR), rat VR1 % activation at single concentration. It counts as cell-based.
From the text: as §1, §2
For assay: • a) Dilute stock by adding 0.8 μL into 1 mL of MeOH (final=80 uM). • b) Add 50 μL of diluted stock to 20 mL of FLIPR buffer (final=0.2 uM) • c) Agonist solution is added 150 μL/well to 96-well plate. • d) Final agonist concentration on cells will be 50 nM. (˜EC80) 6) Compound Plate preparation: • a) Compound plate is filled with 150 μL/well of FLIPR buffer • b) 3 μL of compound mixtures (1 mg/mL) is added to each well (represents a 3× solution and final DMSO=0.67%) Assay Procedure: • 1) Media is removed from cells grown in 96-well dishes. • 2) 100 μL of Fluo-4 containing FLIPR buffer in pipetted into each well. • 3) Plates are incubated for 30-60 minutes at 37° C. in 5% CO2 incubator. • 4) Plates are then washed three times with 100 μL of FLIPR buffer. • 5) 100 μL of FLIPR buffer is left in each well and plate is incubated at 37° C. for at least 20 minutes. • 6) Signal of dye-labeled plate is initially determined using laser at 0.300 W with an exposure time of 0.4 seconds. Laser is adjusted upwards for an average signal≧10,000/well and less than 10% variability. 7) Compound addition conditions are as follows: • FLIPR setup (dual sequence parameters): • Sequence 1: • First interval 1 sec/60 counts • Second interval 6 sec/50 counts • Fluid addition=50 μL • Pipettor height 110 μL • Dispense Speed=30 μL/sec • Sequence 2: • Second interval 1 sec/60 counts • Second interval 6 sec/40 counts • Fluid addition=50 μL • Pipettor height=140 μL • Dispense Speed=50 μL/sec Data Analysis: • 1) Data from both additions is reported as Max-Min for each well

T3 sequence (O35433 whole entry): as the sequence (O35433 whole entry) above

For `O=C(Nc1ccc(C(F)(F)F)cc1)N1CCC2(CC1)C(=O)N(c1ccccn1)C2c1ccccc1` (centres unmarked), the IC50 on TRPV1 (VR1) [1] was found to be 20 nM; on TRPV1 (VR1) [2], 16 nM.
On the same counts, the results for `CC(C)(C)c1ccc(NC(=O)N2CCC3(CC2)CN(c2ccccc2)C3=O)cc1` are 80 nM and 59 nM.
Take `CCC(C)c1ccc(NC(=O)N2CCC3(CC2)C(=O)N(c2ccccc2)C3c2ccccc2)cc1` (centres unmarked): the IC50 at TRPV1 (VR1) [1] amounted to 98 nM; on TRPV1 (VR1) [2] it was 81 nM.
Consider `O=C(Nc1ccc(C(F)(F)F)cn1)N1CCC2(CC1)C(=O)N(c1ccccc1)C2c1ccccc1` (centres unmarked), for which the figures for the IC50 on TRPV1 (VR1) [1] and at TRPV1 (VR1) [2] were 315 nM and 205 nM, respectively.
The corresponding values for `CC(C)c1ccc(NC(=O)N2CCC3(CC2)CN(c2ccccc2)C3=O)cc1` are 504 nM and 5 nM.
For `O=C(Nc1c(Cl)cccc1Cl)N1CCC2(CC1)C(=O)N(c1ccccc1)C2c1ccccc1` (centres unmarked), the figures for the Ki at NPC1L1 and on human NPC1L1 were 1520 nM and 2120 nM, respectively.
The corresponding values for `Cc1cccc(Cl)c1NC(=O)N1CCC2(CC1)C(=O)N(c1ccc(F)cc1)C2c1ccc(Cl)cc1` (centres unmarked) are 5950 nM and 10100 nM.
The corresponding values for `O=C(Nc1c(Cl)cccc1Cl)N1CCC2(CC1)C(=O)N(c1ccc(F)cc1)C2c1ccc(Cl)cc1` (centres unmarked) are 4840 nM and 6410 nM.
Turning to `O=C(Nc1ccc(C(F)(F)F)cc1)N1CCC2(CC1)C(=O)N(c1ccccn1)C2c1ccccc1` (single isomer, unassigned), the IC50 on TRPV1 (VR1) [1] and on TRPV1 (VR1) [2] was 7 nM in each case.
For the molecule `CC(C)(C)c1ccc(NC(=O)N2CCC3(CC2)C(=O)N(c2ccccc2)C3c2ccccc2)cc1` (single isomer, unassigned), the figures for the IC50 on TRPV1 (VR1) [1] and at TRPV1 (VR1) [2] were 9 nM and 12 nM, respectively.
As for `CC(C)(C)C1CCC(NC(=O)N2CCC3(CC2)C(=O)N(c2ccccc2)C3c2ccccc2)CC1` (single isomer, unassigned), the IC50 at TRPV1 (VR1) [1] worked out at 48 nM; at TRPV1 (VR1) [2] it was 31 nM.
For `CC(C)(C)C1CCC(NC(=O)N2CCC3(CC2)CN(c2ccccc2)C3=O)CC1` (single isomer, unassigned), the IC50 at TRPV1 (VR1) [1] came to 84 nM; at TRPV1 (VR1) [2], 123 nM.
With `O=C(Nc1cccc(C(F)(F)F)c1)N1CCC2(CC1)C(=O)N(c1ccc(F)c(Cl)c1)C2c1ccccn1` (centres unmarked) [drawing 660], the “rat VR1 % activation @ 3.3 ug/ml compound” value at rat VR1 was 98%.
Still for that read-out and setting: in the case of `O=C(Nc1cccc(C(F)(F)F)c1)N1CCC2(CC1)C(=O)N(c1cncc(Cl)c1)C2c1ccccn1` (centres unmarked) [drawing 661] it was 61%; in that of `N#Cc1cc(F)cc(NC(=O)N2CCC3(CC2)C(=O)N(c2ccc(F)c(Cl)c2)C3c2ccccn2)c1` (centres unmarked) [drawing 662], 67%.
On the same count and under the same terms, the figure for `N#Cc1cccc(N2C(=O)C3(CCN(C(=O)Nc4cccc(C(F)(F)F)c4)CC3)C2c2ccccn2)c1` (centres unmarked) [drawing 663] is 61%; for `O=C(Nc1cc(F)cc(F)c1)N1CCC2(CC1)C(=O)N(c1cccc(Cl)c1)C2c1cccnc1` (centres unmarked) [drawing 664] it is 75%.
